Assay results as given in US20220133722A1, “PHARMACEUTICAL COMPOSITIONS” (QUE ONCOLOGY PTY LTD, priority 2019, published 2022).
Values joined by “and” are separate entries in the source; they are usually repeats but may differ in a detail not shown here. Equal values may be shown once. Read-outs that look alike come from different tables or passages of the source.

Experiment: Part 2 PK study: 200 mg QD versus 100 mg BID for 10 days under fed conditions
Assay type: in vivo, human
Conditions: fed; for AUC: read-out: AUC0-tau; for Tmax: read-out: Tmax; for half-life: read-out: t½ (converted); for concentration at 10 day: read-out: Cmin; for Vd/F: read-out: Vz/F
Method: Part 2 involved analysing the PK parameters obtained following either single (QD) or twice daily (BD) dosing of a compound of formula (Ia) under fed conditions.
Subjects were randomized 1:1 to receive a daily dose of 200 mg administered once daily in the morning (200 mg capsule) or twice daily (100 mg capsules BID) for a total of 10 days. PK blood samples were taken on Day 1 pre-dose and at 0.25, 0.5, 1.0, 1.5, 2, 3, 4, 8, 10, 12 and 16 hours post-dose. On Days 2 to 10, PK blood samples were taken once pre-dose, and on Days 11 to 14, at 24, 36, 48, 60, 72 and 96 hours post-dose.
Subjects selected for participation checked into the clinical unit and were randomized to the dosing regimen receiving their first dose of study drug on the morning of Day 1 followed by PK and safety assessments through the morning of Day 2 (24 hours post-dose). Subjects on a BID regimen received their second dose of study drug approximately 12 hours after the first dose. Subjects remained confined in the clinic for dosing BID or QD through the last dose of study drug on the morning of Day 10. PK samples were collected through 96 hrs post-dose. Subjects were discharged from the clinic following collection of the 72 hr PK sample, returning to the clinic on the morning of Day 14 for the 96 hr sample collection.
For both Parts 1 and 2, samples were processed and analysed as follows. The method extracted Q-122 and the Internal Standard (IS, Q-122 ^13C4) from human plasma using protein precipitation extraction.
The analytes were separated by HPLC on a Phenomenex Synergi Polar-RP column, and the eluates monitored by an API4000 MS/MS detector in positive MRM mode. The extract was then assayed against a calibration curve. The data were acquired and processed by the data acquisition system Analyst® (Sciex) linked directly to the API4000 MS/MS detector and then processed in Watson LIMS™ (Thermo Scientific), where applicable. The method range is from 10.0 to 2500 ng/mL using 50 μL of matrix and has a run time of approximately 3.2 minutes per sample.
Plasma PK parameters for each dosing regimen and dose level were calculated from the concentrations of Q-122 and its major metabolites measured in pre-dose and post-dose plasma samples. For each dose level, descriptive statistics (sample size, arithmetic means, geometric means, standard deviation, % coefficient of variation, minimum, median, and maximum) are presented.
The pharmacokinetic results were processed according to standard non-compartmental analytical procedures. The software used was Phoenix™ WinNonlin® v 6.4 (Pharsight Corporation, USA) and Microsoft® Excel® 2010 (Microsoft Corporation). The following PK parameters were estimated from plasma data.

[1] = 200 mg QD, Day 10, individual subjects
[2] = human, plasma, oral, 100 mg, 100 mg BID, Day 1, individual subjects
[3] = human, plasma, oral, 100 mg, 100 mg BID, Day 1, mean
[4] = human, plasma, oral, 100 mg, 100 mg BID, Day 1, median
[5] = human, plasma, oral, 100 mg, 100 mg BID, Day 10, individual subjects
[6] = human, plasma, oral, 100 mg, 100 mg BID, Day 10, mean
[7] = human, plasma, oral, 100 mg, 100 mg BID, Day 10, median
[8] = human, plasma, oral, 200 mg, 200 mg QD, Day 1, mean
[9] = human, plasma, oral, 200 mg, 200 mg QD, Day 1, median
[10] = human, plasma, oral, 200 mg, 200 mg QD, Day 10, mean
[11] = human, plasma, oral, 200 mg, 200 mg QD, Day 10, median

c1cnc(NCc2ccc(CNc3ncccn3)cc2)nc1 [Q-122]
% AUCexp [1]: 2.32% and 3.36% and 2.33% and 7.19% and 10.70% and 1.77% | AUC0-last [1]: 12003 ng·h/mL and 11557 ng·h/mL and 9531 ng·h/mL and 14024 ng·h/mL and 6077 ng·h/mL and 10643 ng·h/mL | AUC0-tau [1]: 10424 ng·h/mL and 9904 ng·h/mL and 8868 ng·h/mL and 11036 ng·h/mL and 3134 ng·h/mL and 9758 ng·h/mL | AUCinf [1]: 12287 ng·h/mL and 11959 ng·h/mL and 9759 ng·h/mL and 15111 ng·h/mL and 6805 ng·h/mL and 10834 ng·h/mL | Accum Index [1]: 1.44 and 1.78 and 1.34 and 2.88 and 2.25 and 1.22 | CLss/F [1]: 19.19 L/h and 20.19 L/h and 22.55 L/h and 18.12 L/h and 63.82 L/h and 20.50 L/h | Cavg [1]: 434.33 ng/mL and 412.65 ng/mL and 369.52 ng/mL and 459.84 ng/mL and 130.57 ng/mL and 406.57 ng/mL | Cmax [1]: 1450.00 ng/mL and 1730.00 ng/mL and 1430.00 ng/mL and 1320.00 ng/mL and 245.00 ng/mL and 1470.00 ng/mL | Cmin [1]: 74.10 ng/mL and 73.50 ng/mL and 52.20 ng/mL and 93.90 ng/mL and 68.20 ng/mL and 77.70 ng/mL | Fluct [1]: 316.79% and 401.43% and 372.87% and 266.63% and 135.41% and 342.45% | Tlast [1]: 60.00 h and 72.00 h and 48.00 h (2×) and 96.00 h (2×) | t½ [1]: 13.99 h and 20.21 h and 12.03 h and 39.04 h and 28.35 h and 9.63 h | % AUCexp (200 mg QD, Day 10, max): 10.70% | AUC0-last (200 mg QD, Day 10, max): 14024 ng·h/mL | AUC0-tau (200 mg QD, Day 10, max): 11036 ng·h/mL | AUCinf (200 mg QD, Day 10, max): 15111 ng·h/mL | Accum Index (200 mg QD, Day 10, max): 2.88 | CLss/F (200 mg QD, Day 10, max): 63.82 L/h | Cavg (200 mg QD, Day 10, max): 459.84 ng/mL | Cmax (200 mg QD, Day 10, max): 1730.00 ng/mL | Cmin (200 mg QD, Day 10, max): 93.90 ng/mL | Fluct (200 mg QD, Day 10, max): 401.43% | Tlast (200 mg QD, Day 10, max): 96.00 h | t½ (200 mg QD, Day 10, max): 39.04 h | % AUCexp (200 mg QD, Day 10, mean): 4.612% | CLss/F (200 mg QD, Day 10, mean): 27.396 L/h | Cavg (200 mg QD, Day 10, mean): 368.913 ng/mL | Cmin (200 mg QD, Day 10, mean): 73.267 ng/mL | Fluct (200 mg QD, Day 10, mean): 305.929% | Tlast (200 mg QD, Day 10, mean): 70.000 h | % AUCexp (200 mg QD, Day 10, median): 2.85% | Accum Index (200 mg QD, Day 10, median): 1.61 | CLss/F (200 mg QD, Day 10, median): 20.35 L/h | Cavg (200 mg QD, Day 10, median): 409.61 ng/mL | Cmin (200 mg QD, Day 10, median): 73.80 ng/mL | Fluct (200 mg QD, Day 10, median): 329.62% | Tlast (200 mg QD, Day 10, median): 66.00 h | % AUCexp (200 mg QD, Day 10, min): 1.77% | AUC0-last (200 mg QD, Day 10, min): 6077 ng·h/mL | AUC0-tau (200 mg QD, Day 10, min): 3134 ng·h/mL | AUCinf (200 mg QD, Day 10, min): 6805 ng·h/mL | Accum Index (200 mg QD, Day 10, min): 1.22 | CLss/F (200 mg QD, Day 10, min): 18.12 L/h | Cavg (200 mg QD, Day 10, min): 130.57 ng/mL | Cmax (200 mg QD, Day 10, min): 245.00 ng/mL | Cmin (200 mg QD, Day 10, min): 52.20 ng/mL | Fluct (200 mg QD, Day 10, min): 135.41% | Tlast (200 mg QD, Day 10, min): 48.00 h | t½ (200 mg QD, Day 10, min): 9.63 h | AUC(0-t) [2]: 8170 ng·h/mL | AUC [2]: 2800 ng·h/mL | AUC(0-t) [3]: 6630 ng·h/mL | AUC [3]: 3590 ng·h/mL | Cmax (human, plasma, oral, 100 mg, 100 mg BID, Day 1, mean, read-out: Cmax): 730 ng/mL | Tmax [3]: 2.25 h | half-life [3]: 5.49 h | AUC(0-t) [4]: 6640 ng·h/mL | AUC [4]: 3690 ng·h/mL | Cmax (human, plasma, oral, 100 mg, 100 mg BID, Day 1, median, read-out: Cmax): 809 ng/mL | Tmax [4]: 2 h | half-life [4]: 5.1 h | AUC(0-inf) [5]: 9020 ng·h/mL | AUC(0-t) [5]: 8810 ng·h/mL | AUC [5]: 7000 ng·h/mL | Cmax (human, plasma, oral, 100 mg, 100 mg BID, Day 10, individual subjects, read-out: Cmax): 1300 ng/mL | Tmax [5]: 2 h | AUC(0-inf) [6]: 7270 ng·h/mL | AUC(0-t) [6]: 6950 ng·h/mL | AUC [6]: 5440 ng·h/mL | Cmax (human, plasma, oral, 100 mg, 100 mg BID, Day 10, mean, read-out: Cmax): 1020 ng/mL | concentration at 10 day [6]: 146 ng/mL | Tmax [6]: 1.75 h | Vd/F [6]: 370 L | half-life [6]: 11.8 h | AUC(0-inf) [7]: 7310 ng·h/mL | AUC(0-t) [7]: 7040 ng·h/mL | AUC [7]: 5760 ng·h/mL | Cmax (human, plasma, oral, 100 mg, 100 mg BID, Day 10, median, read-out: Cmax): 1060 ng/mL | Tmax [7]: 2 h | Vd/F [7]: 210 L | half-life [7]: 8.2 h | Tmax (human, plasma, oral, 200 mg, 200 mg QD, Day 1, individual subjects): 3 h | AUC(0-t) [8]: 8060 ng·h/mL | AUC [8]: 8060 ng·h/mL | Cmax (human, plasma, oral, 200 mg, 200 mg QD, Day 1, mean, read-out: Cmax): 1350 ng/mL | Tmax [8]: 3.17 h | half-life [8]: 8.64 h | AUC(0-t) [9]: 7790 ng·h/mL | AUC [9]: 7790 ng·h/mL | Cmax (human, plasma, oral, 200 mg, 200 mg QD, Day 1, median, read-out: Cmax): 1560 ng/mL | Tmax [9]: 3 h | half-life [9]: 7.7 h | Tmax (human, plasma, oral, 200 mg, 200 mg QD, Day 10, individual subjects): 4 h | AUC(0-inf) [10]: 11100 ng·h/mL | AUC(0-t) [10]: 10600 ng·h/mL | AUC [10]: 8850 ng·h/mL | Cmax (human, plasma, oral, 200 mg, 200 mg QD, Day 10, mean, read-out: Cmax): 1270 ng/mL | concentration at 10 day [10]: 73 ng/mL | Tmax [10]: 3.33 h | Vd/F [10]: 881 L | half-life [10]: 20.5 h | AUC(0-inf) [11]: 11400 ng·h/mL | AUC(0-t) [11]: 11100 ng·h/mL | AUC [11]: 9830 ng·h/mL | Cmax (human, plasma, oral, 200 mg, 200 mg QD, Day 10, median, read-out: Cmax): 1440 ng/mL | Tmax [11]: 3.5 h | Vd/F [11]: 490 L | half-life [11]: 17.1 h
